≈ marks a conversion by molar mass, not a printed value.
Columns and labels:
Assay in all cases: ≥ marks a high value that may be exact or a test limit, other limits are often not marked, values filed in µg/mL are converted to µM
[1] = test system: Pseudomonas aeruginosa ATCC 27853
Escherichia coli D21 = test system: Escherichia coli D21
[2] = test system: Escherichia coli ATCC 25922
[3] = test system: Staphylococcus epidermidis LT1324
[4] = test system: Staphylococcus aureus II ATCC 6538P
Micrococcus luteus = test system: Micrococcus luteus
[5] = test system: Acinetobacter baumannii ATCC 19606
Staphylococcus simulans = test system: Staphylococcus simulans
Pseudomonas aeruginosa = test system: Pseudomonas aeruginosa
Staphylococcus aureus = test system: Staphylococcus aureus
Escherichia coli 55B5 = test system: Escherichia coli 55B5
Salmonella typhimurium = test system: Salmonella typhimurium
Escherichia coli UB1005 = test system: Escherichia coli UB1005
Shigella dysenteriae = test system: Shigella dysenteriae
Escherichia coli = test system: Escherichia coli
[6] = test system: Shigella dysenteriae ATCC 2932
[7] = test system: Staphylococcus aureus ATCC 2576
[8] = test system: Escherichia coli ATCC 25629
[9] = test system: Candida albicans ATCC 3007
[10] = test system: Candida parapsilosis ATCC 22019
[11] = test system: Escherichia coli ATCC 35218
[12] = test system: Staphylococcus aureus ATCC 25923
Bacillus megaterium = test system: Bacillus megaterium
Saccharomyces cerevisiae = test system: Saccharomyces cerevisiae
Aspergillus flavus = test system: Aspergillus flavus
[13] = test system: Enterococcus faecalis ATCC 29212
[14] = test system: Candida albicans ATCC 90028
[15] = test system: Spiroplasma melliferum BC3
Spiroplasma citri R8A2 = test system: Spiroplasma citri R8A2
[16] = test system: Mycoplasma mycoides ssp. mycoides SC KH3J
[17] = test system: Spiroplasma floricola BNR 1
[18] = test system: Acholeplasma laidlawii A-EF22

For CC(C)C[C@H](NC(=O)[C@H](CC(C)C)NC(=O)[C@H](CCCCN)NC(=O)[C@H](CC(C)C)NC(=O)[C@H](CC(C)C)NC(=O)[C@H](CCCCN)NC(=O)[C@H](CC(C)C)NC(=O)[C@H](CC(C)C)NC(=O)[C@H](CCCCN)NC(=O)[C@H](CC(C)C)NC(=O)[C@H](CC(C)C)NC(=O)[C@H](CCCCN)NC(=O)[C@H](CC(C)C)NC(=O)[C@@H](N)CCCCN)C(=O)N[C@@H](CCCCN)C(N)=O [KLKLLKLLKLLKLLK], the MIC [1] was 6 µM (≈ 10.8 µg/mL), the MIC (Escherichia coli D21) was 3 µM (≈ 5.41 µg/mL) and the MIC [2] was 3 µM (≈ 5.41 µg/mL). It also gave an MIC [3] of 1.5 µM (≈ 2.71 µg/mL), an MIC [4] of 6 µM (≈ 10.8 µg/mL) and an MIC (Micrococcus luteus) of 2 µM (≈ 3.61 µg/mL). It also gave an MIC [5] of 2 µM (≈ 3.61 µg/mL) and an MIC (Staphylococcus simulans) of 1.5 µM (≈ 2.71 µg/mL).

CC[C@H](C)[C@H](NC(=O)[C@H](C)N)C(=O)N[C@@H](Cc1cnc[nH]1)C(=O)N[C@@H](CCCCN)C(=O)N[C@@H](CC(C)C)C(=O)N[C@@H](C)C(=O)N[C@@H](Cc1cnc[nH]1)C(=O)N[C@@H](CCCCN)C(=O)N[C@@H](CC(C)C)C(=O)N[C@@H](CC(C)C)C(=O)N[C@@H](CCCCN)C(=O)N[C@@H](CCCCN)C(=O)N[C@H](C(=O)N[C@@H](CC(C)C)C(=O)N[C@@H](CCCN=C(N)N)C(=O)N[C@@H](C)C(=O)N[C@H](C(=O)N[C@@H](CCCCN)C(=O)N[C@@H](CCCCN)C(=O)N[C@@H](CC(C)C)C(=O)N[C@@H](C)C(=O)N[C@@H](CC(N)=O)C(=O)O)C(C)C)[C@@H](C)O [AIHKLAHKLLKKTLRAVKKLAN] showed an MIC (Pseudomonas aeruginosa) of 10.5 µM (≈ 26.2 µg/mL), an MIC (Staphylococcus aureus) of 30 µM (≈ 74.9 µg/mL) and an MIC (Escherichia coli 55B5) of 5.2 µM (≈ 13 µg/mL). For the same compound, the MIC (Salmonella typhimurium) was 8.5 µM (≈ 21.2 µg/mL) and the MIC (Escherichia coli UB1005) was 5.5 µM (≈ 13.7 µg/mL).

CC[C@H](C)[C@H](NC(=O)CN)C(=O)N[C@@H](CC(C)C)C(=O)N[C@@H](CCCCN)C(=O)N[C@@H](CCCCN)C(=O)N[C@@H](Cc1ccccc1)C(=O)N[C@@H](CCSC)C(=O)N[C@@H](CC(C)C)C(=O)N[C@@H](Cc1cnc[nH]1)C(=O)N[C@@H](CCCN=C(N)N)C(=O)NCC(=O)N[C@H](C(=O)N[C@@H](CCCCN)C(=O)N[C@H](C(=O)N[C@@H](Cc1ccc(O)cc1)C(=O)N[C@@H](CCCCN)C(=O)N[C@@H](CCSC)C(=O)N[C@@H](CCCN=C(N)N)C(=O)N[C@H](C(=O)N[C@@H](CC(C)C)C(=O)N[C@@H](CO)C(=O)N[C@@H](CCCCN)C(=O)N[C@@H](CCCN=C(N)N)C(=O)N[C@@H](CO)C(=O)N[C@@H](Cc1cnc[nH]1)C(=O)O)[C@@H](C)O)C(C)C)[C@@H](C)O [GILKKFMLHRGTKVYKMRTLSKRSH] was tested, and the MIC (Shigella dysenteriae) was 1.66 µM (≈ 5 µg/mL), the MIC (Escherichia coli) was 1.66 µM (≈ 5 µg/mL) and the MIC [6] was 0.829 µM (≈ 2.5 µg/mL). It also gave an MIC (Staphylococcus aureus) of 0.332 µM (≈ 1 µg/mL), an MIC [7] of 0.166 µM (≈ 0.5 µg/mL) and an MIC [8] of 1.66 µM (≈ 5 µg/mL). The MIC [9] was 2.49 µM (≈ 7.5 µg/mL).

In the case of CC[C@H](C)[C@H](NC(=O)[C@@H]1CCCN1C(=O)[C@H](CC(C)C)NC(=O)[C@@H](N)Cc1ccccc1)C(=O)N[C@H](C(=O)N[C@H](C(=O)N[C@@H](CC(N)=O)C(=O)N[C@@H](CC(C)C)C(=O)N[C@@H](CC(C)C)C(=O)N[C@@H](CO)C(=O)NCC(=O)N[C@@H](CC(C)C)C(=O)N[C@@H](CC(C)C)C(=O)O)[C@@H](C)O)C(C)C [FLPIVTNLLSGLL], the MIC [10] is reported as ≥ 116 µM, the MIC [1] is reported as > 231 µM and the MIC [11] is reported as ≥ 116 µM. For the same compound, the MIC [2] was 231 µM (≈ 323 µg/mL), the MIC [12] was 58 µM (≈ 81.2 µg/mL) and the MIC (Bacillus megaterium) was ≥ 46 µM. For the same compound, the MIC (Saccharomyces cerevisiae) was ≥ 116 µM, the MIC (Aspergillus flavus) was ≥ 58 µM and the MIC [13] was > 116 µM. For the same compound, the MIC [14] was ≥ 116 µM.

CC(C)C[C@H](NC(=O)[C@H](CC(C)C)NC(=O)[C@H](CCCCN)NC(=O)[C@H](CC(C)C)NC(=O)[C@H](CC(C)C)NC(=O)[C@H](CC(C)C)NC(=O)[C@H](CCCCN)NC(=O)[C@H](CC(C)C)NC(=O)[C@H](CC(C)C)NC(=O)[C@H](CC(C)C)NC(=O)[C@H](CCCCN)NC(=O)[C@H](CC(C)C)NC(=O)[C@H](CC(C)C)NC(=O)[C@@H](N)CCCCN)C(=O)N[C@@H](CCCCN)C(=O)O [KLLKLLLKLLLKLLK] showed an MIC [15] of 6.25 µM (≈ 11.2 µg/mL), an MIC (Spiroplasma citri R8A2) of 6.25 µM (≈ 11.2 µg/mL) and an MIC [16] of 6.25 µM (≈ 11.2 µg/mL). It also gave an MIC [17] of 6.25 µM (≈ 11.2 µg/mL) and an MIC [18] of 1.56 µM (≈ 2.79 µg/mL).

— DBAASP
